Reference: ChEMBL document CHEMBL3272271, “Folate antagonists. 13. 2,4-Diamino-6-](alpha,alpha,alpha-trifluoro-m-tolyl)thio]quinazoline and related 2,4-diamino-6-[(phenyl- and naphthyl)thio]quinazolines, a unique class of antimetabolites with extraordinary antimalarial and antibacterial effects” (J Med Chem, 1978)
In brackets after ≈: the same amount, converted by molar mass. Activity calls are given as the source filed them. No cut-off for these calls is given here.

Experiments:
Plasmodium gallinaceum [1] = test: Antimalarial activity against trophozoite-induced Plasmodium gallinaceum infected in white leghorn chicken assessed as increase in mean survival days of host at 5 mg/kg, sc administered 72 hrs after infection relative to control; type: functional; conditions: route subcutaneous
Plasmodium gallinaceum [2] = test: Antimalarial activity against trophozoite-induced Plasmodium gallinaceum infected in white leghorn chicken assessed as increase in mean survival days of host at 20 mg/kg, sc administered 72 hrs after infection relative to control; type: functional; conditions: route subcutaneous
Plasmodium gallinaceum [3] = test: Antimalarial activity against sporozoite-induced Plasmodium gallinaceum infected in white leghorn chicken assessed as disease cure from parasite infection at 480 mg/kg, sc administered 72 hrs after infection; type: functional, organism-based; set-up: dose 480 mg/kg
Plasmodium gallinaceum [4] = test: Antimalarial activity against sporozoite-induced Plasmodium gallinaceum infected in white leghorn chicken assessed as increase in mean survival days of host at 60 mg/kg, sc administered 72 hrs after infection relative to control; type: functional; conditions: route subcutaneous
[5] = test system: Mycobacterium tuberculosis; test: Antibacterial activity against Mycobacterium tuberculosis H37Ra by gradient plate test; type: functional
Staphylococcus aureus [6] = test: Antibacterial activity against Staphylococcus aureus UC-96 by gradient plate test; type: functional
Plasmodium berghei [7] = test: Antimalarial activity against Plasmodium berghei infected in mouse assessed as increase in mean survival days of host at 2.5 mg/kg, sc administered 72 hrs after infection relative to control; type: functional; conditions: route subcutaneous
Plasmodium gallinaceum [8] = test: Antimalarial activity against sporozoite-induced Plasmodium gallinaceum infected in white leghorn chicken assessed as disease cure from parasite infection at 120 mg/kg, sc administered 72 hrs after infection; type: functional, organism-based; set-up: dose 120 mg/kg
Shigella sonnei = test: Antibacterial activity against Shigella sonnei C-10 by gradient plate test; type: functional
Plasmodium berghei [9] = test: Antimalarial activity against Plasmodium berghei infected in mouse assessed as disease cure from parasite infection at 40 mg/kg, sc administered 72 hrs after infection; type: functional, organism-based; set-up: dose 40 mg/kg
Plasmodium gallinaceum [10] = test: Antimalarial activity against sporozoite-induced Plasmodium gallinaceum infected in white leghorn chicken assessed as disease cure from parasite infection at 240 mg/kg, sc administered 72 hrs after infection; type: functional, organism-based; set-up: dose 240 mg/kg
Plasmodium gallinaceum [11] = test: Antimalarial activity against trophozoite-induced Plasmodium gallinaceum infected in white leghorn chicken assessed as increase in mean survival days of host at 2.5 mg/kg, sc administered 72 hrs after infection relative to control; type: functional; conditions: route subcutaneous
Plasmodium berghei [12] = test: Antimalarial activity against Plasmodium berghei infected in mouse assessed as disease cure from parasite infection at 80 mg/kg, sc administered 72 hrs after infection; type: functional, organism-based; set-up: dose 80 mg/kg
Escherichia coli = test: Antibacterial activity against Escherichia coli Vogel by gradient plate test; type: functional
Plasmodium berghei [13] = test: Antimalarial activity against Plasmodium berghei infected in mouse assessed as disease cure from parasite infection at 320 mg/kg, sc administered 72 hrs after infection; type: functional, organism-based; set-up: dose 320 mg/kg
Plasmodium berghei [14] = test: Antimalarial activity against Plasmodium berghei infected in mouse assessed as disease cure from parasite infection at 640 mg/kg, sc administered 72 hrs after infection; type: functional, organism-based; set-up: dose 640 mg/kg
Plasmodium berghei [15] = test: Antimalarial activity against Plasmodium berghei infected in mouse assessed as increase in mean survival days of host at 1.25 mg/kg, sc administered 72 hrs after infection relative to control; type: functional; conditions: route subcutaneous
Plasmodium gallinaceum [16] = test: Antimalarial activity against sporozoite-induced Plasmodium gallinaceum infected in white leghorn chicken assessed as disease cure from parasite infection at 60 mg/kg, sc administered 72 hrs after infection; type: functional, organism-based; set-up: dose 60 mg/kg
Plasmodium berghei [17] = test: Antimalarial activity against Plasmodium berghei infected in mouse assessed as increase in mean survival days of host at 20 mg/kg, sc administered 72 hrs after infection relative to control; type: functional; conditions: route subcutaneous
Enterococcus faecalis = test: Antibacterial activity against Streptococcus faecalis MGH-2 by gradient plate test; type: functional
Plasmodium gallinaceum [18] = test: Antimalarial activity against trophozoite-induced Plasmodium gallinaceum infected in white leghorn chicken assessed as increase in mean survival days of host at 0.63 mg/kg, sc administered 72 hrs after infection relative to control; type: functional; conditions: route subcutaneous
Plasmodium berghei [19] = test: Antimalarial activity against Plasmodium berghei infected in mouse assessed as increase in mean survival days of host at 40 mg/kg, sc administered 72 hrs after infection relative to control; type: functional; conditions: route subcutaneous
Plasmodium gallinaceum [20] = test: Antimalarial activity against trophozoite-induced Plasmodium gallinaceum infected in white leghorn chicken assessed as increase in mean survival days of host at 10 mg/kg, sc administered 72 hrs after infection relative to control; type: functional; conditions: route subcutaneous
Plasmodium berghei [21] = test: Antimalarial activity against Plasmodium berghei infected in mouse assessed as disease cure from parasite infection at 160 mg/kg, sc administered 72 hrs after infection; type: functional, organism-based; set-up: dose 160 mg/kg
Plasmodium gallinaceum [22] = test: Antimalarial activity against trophozoite-induced Plasmodium gallinaceum infected in white leghorn chicken assessed as increase in mean survival days of host at 1.25 mg/kg, sc administered 72 hrs after infection relative to control; type: functional; conditions: route subcutaneous
Plasmodium berghei [23] = test: Antimalarial activity against Plasmodium berghei infected in mouse assessed as increase in mean survival days of host at 10 mg/kg, sc administered 72 hrs after infection relative to control; type: functional; conditions: route subcutaneous
Staphylococcus aureus [24] = test: Antibacterial activity against drug-resistant Staphylococcus aureus S18713 by gradient plate test; type: functional
Pseudomonas aeruginosa = test: Antibacterial activity against Pseudomonas aeruginosa 28 by gradient plate test; type: functional
Plasmodium gallinaceum [25] = test: Antimalarial activity against sporozoite-induced Plasmodium gallinaceum infected in white leghorn chicken assessed as increase in mean survival days of host at 30 mg/kg, sc administered 72 hrs after infection relative to control; type: functional; conditions: route subcutaneous
Plasmodium gallinaceum [26] = test: Antimalarial activity against sporozoite-induced Plasmodium gallinaceum infected in white leghorn chicken assessed as increase in mean survival days of host at 15 mg/kg, sc administered 72 hrs after infection relative to control; type: functional; conditions: route subcutaneous
Plasmodium gallinaceum [27] = test: Antimalarial activity against sporozoite-induced Plasmodium gallinaceum infected in white leghorn chicken assessed as increase in mean survival days of host at 120 mg/kg, sc administered 72 hrs after infection relative to control; type: functional; conditions: route subcutaneous
Plasmodium berghei [28] = test: Antimalarial activity against Plasmodium berghei infected in mouse assessed as increase in mean survival days of host at 5 mg/kg, sc administered 72 hrs after infection relative to control; type: functional; conditions: route subcutaneous
Plasmodium gallinaceum [29] = test: Antimalarial activity against sporozoite-induced Plasmodium gallinaceum infected in white leghorn chicken assessed as disease cure from parasite infection at 30 mg/kg, sc administered 72 hrs after infection; type: functional, organism-based; set-up: dose 30 mg/kg
Plasmodium berghei [30] = test: Antimalarial activity against Plasmodium berghei infected in mouse assessed as increase in mean survival days of host at 640 mg/kg, sc administered 72 hrs after infection relative to control; type: functional; conditions: route subcutaneous
Plasmodium berghei [31] = test: Antimalarial activity against Plasmodium berghei infected in mouse assessed as increase in mean survival days of host at 320 mg/kg, sc administered 72 hrs after infection relative to control; type: functional; conditions: route subcutaneous
Plasmodium berghei [32] = test: Antimalarial activity against Plasmodium berghei infected in mouse assessed as increase in mean survival days of host at 160 mg/kg, sc administered 72 hrs after infection relative to control; type: functional; conditions: route subcutaneous
Plasmodium berghei [33] = test: Antimalarial activity against Plasmodium berghei infected in mouse assessed as increase in mean survival days of host at 80 mg/kg, sc administered 72 hrs after infection relative to control; type: functional; conditions: route subcutaneous
Plasmodium gallinaceum [34] = test: Antimalarial activity against sporozoite-induced Plasmodium gallinaceum infected in white leghorn chicken assessed as disease cure from parasite infection at 15 mg/kg, sc administered 72 hrs after infection; type: functional, organism-based; set-up: dose 15 mg/kg

| SMILES | Activity (Plasmodium gallinaceum [3]) | MST (Plasmodium gallinaceum [4]) | MIC [5] | MIC (Staphylococcus aureus [6]) | Activity (Plasmodium gallinaceum [8]) | MIC (Shigella sonnei) | Activity (Plasmodium berghei [9]) | Activity (Plasmodium gallinaceum [10]) | Activity (Plasmodium berghei [12]) | MIC (Escherichia coli) | Activity (Plasmodium berghei [13]) | Activity (Plasmodium berghei [14]) | Activity (Plasmodium gallinaceum [16]) | MST (Plasmodium berghei [17]) | MIC (Enterococcus faecalis) | MST (Plasmodium berghei [19]) | Activity (Plasmodium berghei [21]) | MST (Plasmodium berghei [23]) | MIC (Staphylococcus aureus [24]) | MIC (Pseudomonas aeruginosa) | also measured |
| --- | --- | --- | --- | --- | --- | --- | --- | --- | --- | --- | --- | --- | --- | --- | --- | --- | --- | --- | --- | --- | --- |
| Nc1nc(N)c2cc(Sc3cccc(-c4ccccc4)c3)ccc2n1 | Active | 0.3 days | > 25 µg/mL | < 0.25 µg/mL | Active | > 25 µg/mL | Active | Active | Active | 10 µg/mL (≈ 29 µM) | Active | Active | Active | 11.1 days | < 0.25 µg/mL | 17.4 days | Active | 8.1 days | < 0.25 µg/mL | > 25 µg/mL | MST (Plasmodium gallinaceum [1]): 0 days; MST (Plasmodium gallinaceum [2]): 0 days; MST (Plasmodium berghei [7]): 5.3 days; MST (Plasmodium gallinaceum [11]): 0 days; MST (Plasmodium berghei [15]): 4.5 days; MST (Plasmodium gallinaceum [18]): 0 days; MST (Plasmodium gallinaceum [20]): 0 days; MST (Plasmodium gallinaceum [22]): 0 days; MST (Plasmodium gallinaceum [25]): 1 days; MST (Plasmodium gallinaceum [26]): 0.7 days; MST (Plasmodium gallinaceum [27]): 0.3 days; MST (Plasmodium berghei [28]): 7.9 days; Activity (Plasmodium gallinaceum [29]): Active |
| Nc1nc(N)c2c(Cl)c(Sc3ccccc3Cl)ccc2n1 |  |  | > 25 µg/mL | < 0.25 µg/mL |  | 1 µg/mL (≈ 2.97 µM) | Active |  | Active | < 0.25 µg/mL | Active | Active |  | 4.7 days | < 0.25 µg/mL | 10.2 days | Active |  | < 0.25 µg/mL | > 25 µg/mL | MST (Plasmodium berghei [30]): 24.9 days; MST (Plasmodium berghei [31]): 24.4 days; MST (Plasmodium berghei [32]): 14.9 days; MST (Plasmodium berghei [33]): 11.7 days |
| Nc1nc(N)c2cc(Sc3ccccc3-c3ccccc3)ccc2n1 | Active | 0 days | 20 µg/mL (≈ 58.1 µM) | < 0.25 µg/mL | Active | > 25 µg/mL |  | Active |  | 2.5 µg/mL (≈ 7.26 µM) |  | Active | Active | 0.5 days | < 0.25 µg/mL | 0.5 days |  | 0.3 days | < 0.25 µg/mL | > 25 µg/mL | MST (Plasmodium berghei [30]): 16.4 days; MST (Plasmodium berghei [31]): 12.5 days; MST (Plasmodium berghei [32]): 5.7 days; MST (Plasmodium gallinaceum [25]): 0 days; MST (Plasmodium gallinaceum [26]): 0 days; Activity (Plasmodium gallinaceum [34]): Active; Activity (Plasmodium gallinaceum [29]): Active; MST (Plasmodium berghei [33]): 3.3 days |
